Results reported in publication PMC8953563, “A Study on the Effect of the Substituent against PAK4 Inhibition Using In Silico Methods” (International Journal of Molecular Sciences, 2022).
Where two headings read alike, the source gives them in different places.

Target: PAK4 (Homo sapiens, UniProt O96013)
Assay: radiometric [γ-33P]-ATP kinase assay (Eurofins KinaseProfiler), myelin basic protein substrate
Type: biochemical

Chain of PAK4 (O96013 whole entry): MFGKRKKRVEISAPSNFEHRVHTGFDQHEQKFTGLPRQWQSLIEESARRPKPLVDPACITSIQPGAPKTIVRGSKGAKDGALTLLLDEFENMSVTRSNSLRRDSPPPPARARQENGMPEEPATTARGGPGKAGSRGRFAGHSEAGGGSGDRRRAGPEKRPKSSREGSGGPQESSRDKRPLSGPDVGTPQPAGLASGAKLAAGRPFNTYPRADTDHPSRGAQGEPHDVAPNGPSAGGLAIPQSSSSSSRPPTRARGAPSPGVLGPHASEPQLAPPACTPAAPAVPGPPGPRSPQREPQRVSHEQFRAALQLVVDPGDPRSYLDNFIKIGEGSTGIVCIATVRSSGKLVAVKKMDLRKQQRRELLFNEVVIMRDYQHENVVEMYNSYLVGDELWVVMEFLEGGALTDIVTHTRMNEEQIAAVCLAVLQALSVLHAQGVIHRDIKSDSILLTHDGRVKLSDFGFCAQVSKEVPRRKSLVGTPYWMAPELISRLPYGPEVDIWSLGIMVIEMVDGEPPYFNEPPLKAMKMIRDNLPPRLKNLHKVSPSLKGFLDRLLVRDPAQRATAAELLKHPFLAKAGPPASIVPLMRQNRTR

IC50 (read-out: 1) [µM]	IC50 (read-out: 2) [µM]	SMILES
5.15		CC(C)c1nn(C)cc1-c1nc2cc(Br)cnc2[nH]1 [compound 1, 6-bromo-2-(3-isopropyl-1-methyl-1H-pyrazol-4-yl)-3H-imidazo[4,5-b]pyridine]
	8.53	CC(C)c1nn(C)cc1-c1nc2cc(Cl)cnc2[nH]1 [compound 2, 6-chloro-2-(3-isopropyl-1-methyl-1H-pyrazol-4-yl)-3H-imidazo[4,5-b]pyridine]
